Patent US9926298B2, “Heterocyclic compounds and use thereof” (National Health Research Institutes, priority 2014, dated 2018)

Assays:
[1] = tested on: Ischemic Stroke in Rats; assay: Ischemic stroke in rats (MCAo); type: in vivo, male Sprague-Dawley rats; details: 1 mg/kg/d i.p. for 5 days; for horizontal movement number compared with vehicle-treated animals / vertical movement number: day 2 after MCAo; for volume of infarction as compared to vehicle (TTC staining): day 5 after MCAo
Procedure: Adult male Sprague-Dawley rats (250-300 g) were anesthetized with chloral hydrate (400 mg/kg i.p.). The right middle cerebral artery was occluded (MCAo) and bilateral common carotids (CCAs) were clamped for 60 minutes to generate focal ischemia in the right cerebral cortex. Core body temperature was maintained at 37° C.
Compounds 62 and 63 and a vehicle were administered to the rats at a dose of 1 mg/kg/d (i.p.) for 5 consecutive days. The first dose was given at 90 minutes after MCAo. Each animal was placed in a 42×42×31 cm activity monitor for 1 h on day 2 after MCAo. The monitor contained 16 horizontal and 8 vertical infrared sensors spaced 2.5 cm apart. Locomotor activity was calculated using the number of infrared beams broken by the animals.
TTC staining was performed on day 5 after MCAo to determine infarction size as described previously in Brain Research, volume 1116, issue 1, 2006, pages 159-165. Briefly, rats were decapitated and the brains were removed and sliced into 2.0-mm-thick sections. The brain slices were incubated in a 2% TTC solution (Sigma-Aldrich) for 15 minutes at room temperature and then transferred into a 4% paraformaldehyde solution for fixation. The area of infarction in each slice was measured with a digital scanner and Imagetools programs (University of Texas Health Sciences Center). The volume of infarction in each animal was obtained from the product of average slice thickness (2 mm) and sum of infarction areas in all brain slices examined.

[2] = tested on: Limb Ischemia in Mice; assay: Limb ischemia in mice; type: in vivo, ICR mice; details: 6 mg/kg/d subcutaneous, twice a week, laser Doppler perfusion, seven weeks
Procedure: Unilateral hindlimb ischemia was induced in ICR mice by ligating and excising the right femoral artery. Briefly, animals were anesthetized by an intraperitoneal injection of Xylocaine (2 mg/kg of body weight) plus Zoletil (i.e., the dissociative anesthetic Tiletamine/Zolazepam at a ratio of 1:1; 5 mg/kg of body weight). The proximal and distal portions of the femoral artery were ligated with a silk thread, and a 0.2 centimeter section of the blood vessel was removed. Hindlimb blood perfusion was measured with a laser Doppler perfusion imager system (Moor Instruments Limited, Devon, UK) before and after the surgery and was then followed on a weekly basis. Animals were subcutaneously treated with compound 4 (6 mg/kg/d, twice a week) in saline after surgery. The animals were sacrificed by cervical dislocation without sedation at the end of the seven experimental weeks. To avoid the influence of ambient light and temperature, the results are expressed as the ratio of perfusion in the right (ischemic) versus left (non-ischemic) limb.

| Compound | horizontal movement number compared with vehicle-treated animals [1] | vertical movement number [1] | volume of infarction as compared to vehicle (TTC staining) [1] | improvement of blood flow in the ischemic hindlimb as compared with the vehicle control [2] |
| --- | --- | --- | --- | --- |
| N[C@@H](CCC(=O)N1CCC(Nc2nc(NCc3cn(CCCNCCCNC4CCCCC4)nn3)nc3ccccc23)CC1)C(=O)OCc1ccccc1 [Compound 62] | significant increase | significantly increased | significantly reduced |  |
| c1ccc2c(NC3CCNCC3)nc(NCc3cn(CCCNCCCNC4CCCCC4)nn3)nc2c1 [Compound 4] |  |  |  | 20-25% |
| N[C@@H](CCC(=O)N1CCC(Nc2nc(NCc3cn(CCCNCCCNC4CCCCC4)nn3)nc3ccccc23)CC1)C(=O)O [Compound 63] | significant increase | significantly increased | significantly reduced |  |
